In series [1] the test system is L. major amastigotes. The experiment in a line: L. major amastigote assay. The following applies: for IC50: Leishmania major; for Selectivity index SI: SI = IC50 for BMDM/IC50 for L. major (amastigotes). In kind it is cell-based, Leishmania major.
Series [2] can be described thus: AlamarBlue cytotoxicity assay on J774.1 macrophages. In kind it is cell-based, murine. The following applies: mouse, J774.1 macrophage cell line, mean of two independent experiments.
Series [3] has as its system cysteine-cathepsin (L. major promastigote full-lysate). The experiment in a line: Cysteine-cathepsin fluorescence activity assay with L. major promastigote full-lysate. In kind it is biochemical, Leishmania major. The following applies: preliminary experiments, result in words.
Series [4] deals with L. donovani promastigotes. The experiment in a line: Quantitative colorimetric assay against L. donovani promastigotes. The following applies: mean of two independent experiments. In kind it is cell-based. As for the experimental part:
(§1) Antileishmanial activities of the synthesized compounds were evaluated in L. major promastigotes as described before and in L. donovani promastigotes according to Hazra et al.. […] The antiprotozoal activities are presented in Table 1, Table 2 and Table 3 as inhibitory concentrations (IC50). […] Materials and methods for the biological assays have been described before by the authors. […] The protocol for the L. donovani quantitative colorimetric assay is outlined by Hazra et al.. The IC50 values are presented as mean values of two independent experiments against the parasite and macrophages.

Series [5] concerns L. major promastigotes. The series can be described thus: AlamarBlue assay, antileishmanial activity against L. major promastigotes. Format: cell-based, Leishmania major. The following applies: for IC50: mean of two independent experiments; for Selectivity index SI: SI = IC50 for J774.1/IC50 for L. major (promastigotes). Here is the method:
as §1

Series [6] can be described thus: Cytotoxicity against bone marrow derived macrophages (BMDM). In kind it is cell-based, murine. The following applies: mouse. From the text: The amastigote is the intracellular pathogenic form of the parasite in the vertebrate host and therefore the important target. […] With regard to antileishmanial activity cinnamic acid menthyl (20) and […] (19) show good activities combined with low cytotoxicity. […] Materials and methods for the biological assays have been described before by the authors. […] The protocol for the L. donovani quantitative colorimetric assay is outlined by Hazra et al.. The IC50 values are presented as mean values of two independent experiments against the parasite and macrophages.

Series [7] deals with J774.1 murine cell line. The experiment in a line: AlamarBlue cytotoxicity assay on J774.1 macrophages. Format: cell-based.

A value given as a limit tells only on which side of the number the result lay.

One may read the IC50 as the concentration at which inhibition is half-maximal. A high value points to a need for much substance. As usually defined, the melting point is the temperature, or range, at which the solid turns liquid.

As for `CC1(C)C2CCC1(C)[C@H](OC(=O)/C=C/c1ccc(O)c(O)c1)C2` (stereo partly drawn) [Compound 1, Caffeic Acid (−)-bornyl Ester], the IC50 in series [1] was 47.6 µM; in series [2], 8.3 µM; in series [4] (Leishmania donovani) it was 27.3 µM; in series [5] (Leishmania major) it was 48.8 µM; in series [6], 5.3 µM. Besides, the “Selectivity index SI” value in series [1] is recorded as 0.1. Further, the protease inhibitory activity result in series [3] is on record as “showed protease inhibitory activity”.

As for `COc1ccc(/C=C/C(=O)OC2CC3CCC2(C)C3(C)C)cc1O` (stereo not drawn) [Compound 2, Isoferulic Acid (−)-bornyl Ester], the IC50 in series [1] stood at 39.2 µM; in series [7] (mean of two independent experiments), 48.7 µM; in series [4], 41.3 µM; in series [5], 64.4 µM; in series [6], 49 µM. Besides, in series [1], the “Selectivity index SI” value was 1.2.

Take `Cc1ccc(C(C)C)c(OC(=O)/C=C/c2ccc(O)c(O)c2)c1` [Compound 10, Caffeic Acid Thymyl Ester]: the melting point lay in the range of 115 to 117 °C. Also, in series [1], the IC50 turned out to be 54.1 µM and the “Selectivity index SI” value stood at 0.2. Further, in series [2], the IC50 is 9.5 µM. This compound displayed an IC50 in series [4] (Leishmania donovani) of 42.1 µM. The IC50 in series [5] (Leishmania major) stood at 57.6 µM. In addition, half-maximal inhibition in series [6] (IC50) was put at 9.8 µM.

On to `CC1(C)C2CCC1(C)C(OC(=O)C=Cc1ccccc1)C2` (stereo not drawn) [Compound 15, Cinnamic Acid (−)-Bornyl Ester], for which the IC50 in series [1] came out at 10.9 µM; in series [2], 45.2 µM; in series [5] (Leishmania major), 39.6 µM; in series [6], 54.3 µM. Also, the “Selectivity index SI” value in series [1] worked out at 5.0; in series [5], 1.1. Besides, in series [3], the protease inhibitory activity result is on record as “showed protease inhibitory activity”.

As to `CC1(C)C2CCC1(C)C(OC(=O)CCc1ccccc1)C2` (stereo not shown) [Compound 27], the “cytotoxicity J774.1 (in words)” value in series [7] (result in words) was “did not show cytotoxicity”. In addition, the IC50 in series [2] is > 100 µM; in series [5] (Leishmania major), 50.2 µM. For the same compound, in series [5], the “Selectivity index SI” value was >2.0.
